# Experimental data from patent US4857530A, “Substituted quinazolinones as anticancer agents” (Warner-Lambert Company, priority 1987, dated 1989).
# Key:
# [1] = target: T1, Thymidylate synthase isolated from L1210 murine leukemia cells (Mus musculus, UniProt P07607); assay: inhibition of thymidylate synthase (tritium release assay); assay type: biochemical; conditions: 50 μ molar deoxyuridine, 100 μmolar 5,10-methylene-tetrahydrofolate
# T1 construct: endogenous in cells
# Description: The compounds of formula I are valuable anticancer agents. The tests employed indicate that compounds of formula I inhibit the enzyme thymidylate synthase. Thymidylate synthase catalyzes the methylation of deoxyuridine monophosphate to thymidine monophosphate and therefore plays a key role in the synthesis of the only nucleotide required exclusively for deoxyribonucleic acid (DNA) synthesis. […] Thus, the compounds of formula I were tested for their ability to inhibit thymidylate synthase. […] Inhibition of thymidylate synthetase by the new quinazoline antifolate CB3717: enzyme purification and kinetics. In: […]., Simmonds, H. A., Muller, M. M. (eds.) "Purine metabolism in man, IV part B. Biochemical, immunological and cancer research." Plenum Publishing Corp., New York, 1984, pp. 375-378. Thymidylate synthase enzyme activity was determined by the tritium release assay method described by Roberts, Biochemistry, 5:3546-3548 (1966).
# [2] = test system: L1210 murine leukemia cell line; assay: growth inhibition of L1210 murine leukemia cell line in vitro; assay type: cell-based; conditions: Mus musculus, L1210, 72 h
# Description: The compounds of formula I were also tested against the L1210 murine leukemia cell line in vitro.
# A cell culture of the L1210 murine leukemia cell line is grown in RPMI 1640 culture medium supplemented with 5% fetal bovine serum containing gentamicin (50 micrograms per milliliter). Dilutions of the test compound are prepared in the appropriate solvent and 20 microliters of each dilution are added to a 24-well Linbro tissue culture plate, followed by the addition of 2.0 ml of cell suspension containing 3×10^4 cells/milliliter. Solvent and medium controls are included in each test.
# After incubation at 37° C. for three days in 5% CO2, the contents of each well are removed and the cells are counted in a ZBI Coulter counter.
# [3] = test system: cells made resistant to the classical DHFR inhibitor methotrexate; conditions: cited from earlier work
# TS = conditions: cited from earlier work
# [4] = test system: ovarian and breast cancer; conditions: cited from earlier work
# [5] = cited from earlier work
# T1 sequence (P07607 whole entry): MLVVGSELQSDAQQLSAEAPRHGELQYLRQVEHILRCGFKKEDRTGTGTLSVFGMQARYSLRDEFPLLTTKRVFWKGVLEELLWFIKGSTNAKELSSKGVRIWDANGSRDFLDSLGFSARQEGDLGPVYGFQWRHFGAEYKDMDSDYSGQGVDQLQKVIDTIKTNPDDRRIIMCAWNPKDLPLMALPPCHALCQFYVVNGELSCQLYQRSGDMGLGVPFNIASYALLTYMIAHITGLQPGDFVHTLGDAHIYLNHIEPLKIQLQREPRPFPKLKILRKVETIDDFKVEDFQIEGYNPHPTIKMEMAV
Structure (SMILES),IC50 [1],IC50 [2],further results
COc1cc(NCc2ccc3nc(N)nc(N)c3c2C)cc(OC)c1OC [trimetrexate],–,–,circumvention of impaired transport resistance [3]: shown to circumvent the impaired transport
"C#CCN(Cc1ccc2nc(N)[nH]c(=O)c2c1)c1ccc(C(N)=O)cc1 [Example 2d, 4-[[(2-Amino-3,4-dihydro-4-oxo-6-quinazolinyl)methyl]-2-propynylamino]benzamide]",0.64 µM,> 20 µM,–
"C#CCN(Cc1ccc2nc[nH]c(=O)c2c1)c1cc(OC)c(OC)c(OC)c1 [Example 2c, 6-[[2-Propynyl-(3,4,5-trimethoxyphenyl)amino]methyl]-4(3H)-quinazolinone]",96 µM,> 10 µM,–
C#CCN(Cc1ccc2nc(N)[nH]c(=O)c2c1)c1ccc(C(=O)O)cc1 [formula A; R=OH],–,–,"decrease of TS inhibition over the classical antifolate analog on removal of the glutamate residue (TS; Jones et al, J. Med. Chem. 29, 1114-1118 (1986)): 84 fold"
"C#CCN(Cc1ccc2nc[nH]c(=O)c2c1)c1ccc(Cl)c(Cl)c1 [Example 2a, 6-[[(3,4-Dichlorophenyl)-2-propynylamino]methyl]-4(3H)-quinazolinone]",11 µM,4 µM,–
"C#CCN(Cc1ccc2nc(N)nc(O)c2c1)c1ccc(C(=O)N[C@@H](CCC(=O)O)C(=O)O)cc1 [CB 3717, N-(4(N-((2-amino-4-hydroxy-6-quinazolinyl)methyl)prop-2-ynylamino)benzoyl)-L-glutamic acid]",–,–,"TS inhibition (in words) (TS; background): selective, tight binding TS inhibitor; liver toxicity ([4]; Phase I clinical trials): nondose related liver toxicity; kidney toxicity ([4]; Phase I clinical trials, due in part to poor solubility): dose limiting kidney toxicity; clinical responses ([4]; Phase I, patients with ovarian and breast cancer): Minor and partial clinical responses; solubility [5]: poor solubility"
"C#CCN(Cc1ccc2nc[nH]c(=O)c2c1)c1ccc(C(C)=O)cc1 [Example 2, 6-[[(4-Acetylphenyl)-2-propynylamino]methyl]-4(3H)-quinazolinone]",2.4 µM,7 µM,–

# Continued, in another order:
IC50 [1],IC50 [2],Structure (SMILES),further results
1.3 µM,5.9 µM,"C#CCN(Cc1ccc2nc(N)[nH]c(=O)c2c1)c1ccc(C#N)cc1 [Example 2e, 4-[[(2-Amino-3,4-dihydro-4-oxo-6-quinazolinyl)methyl]-2-propynylamino]benzonitrile]",–
0.51 µM,11.8 µM,"C#CCN(Cc1ccc2nc(N)[nH]c(=O)c2c1)c1ccc(C(=O)C(F)(F)F)cc1 [Example 2k, 2-Amino-6-[[2-propynyl[4-(trifluoroacetyl)phenyl]amino]methyl]-4(3H)-quinazolinone]",–
5 µM,12.6 µM,"C#CCN(Cc1ccc2nc(N)nc(O)c2c1)c1ccc(Cl)c(Cl)c1 [Example 2g, 2-Amino-6-[[(3,4-Dichlorophenyl)-2-propynylamino]methyl]-4(3H)-quinazolinone]",–
0.77 µM,4.3 µM,"C#CCN(Cc1ccc2nc(N)[nH]c(=O)c2c1)c1ccc(C(C)=O)cc1 [Example 2j, 6-[[(4-Acetylphenyl)-2-propynylamino]methyl]-2-amino-4(3H)-quinazolinone]",–
0.62 µM,2.4 µM,"C#CCN(Cc1ccc2nc(N)[nH]c(=O)c2c1)c1ccc([N+](=O)[O-])cc1 [Example 2i, 2-Amino-6-[[(4-nitrophenyl)-2-propynylamino]methyl]-4(3H)-quinazolinone]",–
50 µM,> 20 µM,"C#CCN(Cc1ccc2nc(N)nc(O)c2c1)c1cc(OC)c(OC)c(OC)c1 [Example 2l, 2-Amino-6-[[2-propynyl(3,4,5-trimethoxyphenyl)amino]methyl]-4(3H)-quinazolinone]",–
11.3 µM,25.1 µM,"C#CCN(Cc1ccc2nc(N)[nH]c(=O)c2c1)c1ccc(OC(F)(F)F)cc1 [Example 2h, 2-Amino-6-[[2-propynyl[4-(trifluoromethoxy)phenyl]amino]methyl]-4(3H)-quinazolinone]",–
11.5 µM,–,"C#CCN(Cc1ccc2nc(N)[nH]c(=O)c2c1)c1ccc(F)cc1 [Example 2f, 2-Amino-6-[[(4-fluorophenyl)-2-propynylamino]methyl]-4(3H)-quinazolinone]",–
1 µM,4.1 µM,"C#CCN(Cc1ccc2nc(N)[nH]c(=O)c2c1)c1ccc(S(=O)(=O)N(C)C)cc1 [Example 2n, 4-[[(2-Amino-3,4-dihydro-4-oxo-6-quinazolinyl)methyl]-2-propynylamino]-N,N-dimethylbenzenesulfonamide]",–
